Like-named read-outs stand apart in the source and are kept apart here.

Here are results for six compounds from US11679107B2 (Eisai R&D Management Co., Ltd., priority 2018, dated 2023).

For series [1], the target named is T1, SF3b complexes (Homo sapiens, UniProt O75533+Q7RTV0).
T1 construct: endogenous in cells; host or cells: Nuclear extracts; A HeLa S3 extract preparation is described for the in vitro splicing assay
Kind of series: Scintillation proximity assay (SPA) with [3H]-labelled pladienolide probe. The class given is binding. To be noted: SF3B1 (WT); geometric mean; read-out: SPA-ATS GMean IC50 (nM) SF3B1 (WT). The essentials: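 SF3b complexes captured from nuclear extracts on anti-SF3B1 antibody SPA beads; test compounds pre-incubated 30 min before 2.5 nM [3H]-pladienolide probe added, then 30 min incubation. Bound probe read by scintillation; values from non-linear regression of concentration–response curves.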

In series [2] the test system is Panc 05.04 cells (SF3b K700E mutant). The series is described as follows: Cell proliferation and viability, CellTiter-Glo, 72 hours. The class given is cell-based. To be noted: PANC0504.1; for CTGlo-ATS Mean MinResponse % 72 h PANC0504.1: -100% = cidal, 0% = static, 100% = uninhibited growth; for GI50: geometric mean. The essentials: (§1)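 RPMI-1640/10% FBS (Panc: + insulin, FBS 15%); 11-pt half-log dose, ~10 μM-100 pM, 0.1% DMSO; 37° C, 5% CO2; ATP luminescence read; % inhibition vs T0 and vehicle, −100% cidal to 100% uninhibited growth.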

Series [3] concerns NCI-H1568 cells (high MCL1). The series is described as above. To be noted: NCIH1568.1; for CTGlo-ATS Mean MinResponse % 72 h NCIH1568.1: -100% = cidal, 0% = static, 100% = uninhibited growth; for GI50: geometric mean. The class given is cell-based. The essentials: as §1
The test system of series [4] is Ad2 variant pre-mRNAs spliced in HeLa S3 nuclear extracts. Kind of series: In vitro splicing assay (IVS), RT-qPCR of spliced product. It counts as biochemical. To be noted: for IC50: geometric mean; for Ratio Ad2.1/2.2: ratio of IVS IC50 Ad2.1 to Ad2.2. The essentials: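 Read-out is one-step TaqMan RT-qPCR of spliced Ad2 mRNA with Ftz as reference, normalized to DMSO and fit by non-linear regression. Reactions held HeLa S3 nuclear extract, 2 ng Ad2-derived pre-mRNA and test compound, with 15 min preincubation. Splicing was started with ATP-containing activation buffer and run 90 min at 30 °C.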
In general terms: Real-time PCR tracks product formation cycle by cycle.

The conditions of series [5]: in vivo; cited from earlier work.
Where [6] appears, read: Panc 05.04, 72 h, read-out: CTGlo-ATS GMean GI50 (nM) 72 h PANC0504.1, 72 h.
[7] abbreviates: NCI-H1568, 72 h, read-out: CTGlo-ATS GMean GI50 (nM) 72 h NCIH1568.1, 72 h.
Setting [8] is: Ad2.1 pre-mRNA substrate, read-out: qPCR-IVS-ATS GMean IC50 (nM) Ad2.1.
[9] abbreviates: Ad2.2 pre-mRNA substrate, read-out: qPCR-IVS-ATS GMean IC50 (nM) Ad2.2.
[10] abbreviates: Panc 05.04, read-out: CTGlo-ATS GMean GI50 (nM) 72 h PANC0504.1, 72 h.
Where [11] appears, read: NCI-H1568, read-out: CTGlo-ATS GMean GI50 (nM) 72 h NCIH1568.1, 72 h.

For orientation: IC50 means the concentration at which inhibition is half-maximal. The GI50 is the concentration that inhibits growth by half. As for `C/C(=C\c1cccc(COC(=O)N(C)C)c1)[C@H]1OC(=O)C[C@H](O)CC[C@H](C)[C@@H](OC(=O)N2CCN(C)CC2)/C=C/[C@@H]1C` [Compound 258, [(2S,3S,4E,6R,7S,10R)-2-[(E)-1-[3-(dimethylcarbamoyloxymethyl)phenyl]prop-1-en-2-yl]-10-hydroxy-3,7-dimethyl-12-oxo-1-oxacyclododec-4-en-6-yl] 4-methylpiperazine-1-carboxylate], the IC50 in series [1] is 11.7 nM; in series [4] (setting [8]), more than 25000 nM; in series [4] (setting [9]) it was 73.8 nM. Besides, in series [2] (72 h), the “CTGlo-ATS Mean MinResponse % 72 h PANC0504.1” value is recorded as −65.918%. In addition, the results for the GI50 in series [2] (setting [6]) and in series [3] (setting [7]) were 28.7 nM and 29.8 nM, respectively. For the same compound, the “CTGlo-ATS Mean MinResponse % 72 h NCIH1568.1” value in series [3] (72 h) is −12.669%. The “Ratio Ad2.1/2.2” value in series [4] came to 338.606.

For the compound `C/C(=C\c1cccc(COC(=O)N2CC[C@@H](F)C2)c1)[C@H]1OC(=O)C[C@H](O)CC[C@H](C)[C@@H](OC(=O)N2CCN(C)CC2)/C=C/[C@@H]1C` [Compound 260], the values for the IC50 in series [1], in series [4] (setting [8]) and in series [4] (setting [9]) were 0.196 nM, more than 25000 nM and 99.4 nM, respectively. For the same compound, in series [2] (72 h), the “CTGlo-ATS Mean MinResponse % 72 h PANC0504.1” value is recorded as −47.734%. In addition, the results for the 50% growth inhibitory concentration (GI50) in series [2] (setting [10]) and in series [3] (setting [11]) were 39.5 nM and 42.3 nM, respectively. The “CTGlo-ATS Mean MinResponse % 72 h NCIH1568.1” value in series [3] (72 h) is on record as −44.621%. Besides, in series [4], the “Ratio Ad2.1/2.2” value is 251.398.

In the case of `C/C(=C\c1cc(F)cc(N2CCOCC2)c1)[C@H]1OC(=O)C[C@H](O)CC[C@H](C)[C@@H](OC(=O)N2CCC(N3CCCCC3)CC2)/C=C/[C@@H]1C` [Compound 262, [(2S,3S,4E,6R,7S,10R)-2-[(E)-1-(3-fluoro-5-morpholin-4-ylphenyl)prop-1-en-2-yl]-10-hydroxy-3,7-dimethyl-12-oxo-1-oxacyclododec-4-en-6-yl] 4-piperidin-1-ylpiperidine-1-carboxylate], the IC50 in series [1] was found to be 5.66 nM; in series [4] (setting [8]), 4100 nM; in series [4] (setting [9]), 51.6 nM. Besides, the “CTGlo-ATS Mean MinResponse % 72 h PANC0504.1” value in series [2] (72 h) is −91.709%. The results for the GI50 in series [2] (setting [6]) and in series [3] (setting [7]) were 29.3 nM and 41.7 nM, respectively. Further, in series [3] (72 h), the “CTGlo-ATS Mean MinResponse % 72 h NCIH1568.1” value is on record as −65.862%. Besides, the “Ratio Ad2.1/2.2” value in series [4] worked out at 79.467.

For the compound `C/C(=C\c1cccc(N2CCN(CCO)CC2)c1)[C@H]1OC(=O)C[C@H](O)CC[C@H](C)[C@@H](OC(=O)N2CCC(N3CCCCC3)CC2)/C=C/[C@@H]1C` [Compound 263, [(2S,3S,4E,6R,7S,10R)-10-hydroxy-2-[(E)-1-[3-[4-(2-hydroxyethyl)piperazin-1-yl]phenyl]prop-1-en-2-yl]-3,7-dimethyl-12-oxo-1-oxacyclododec-4-en-6-yl] 4-piperidin-1-ylpiperidine-1-carboxylate], the IC50 was 37.7 nM in series [1], 93.6 nM in series [4] (setting [8]) and 25.5 nM in series [4] (setting [9]). Moreover, in series [2] (72 h), the “CTGlo-ATS Mean MinResponse % 72 h PANC0504.1” value was −88.783%. Further, the figures for the GI50 in series [2] (setting [10]) and in series [3] (setting [11]) were 64.5 nM and 102 nM, respectively. In series [3] (72 h), the “CTGlo-ATS Mean MinResponse % 72 h NCIH1568.1” value is on record as −67.601%. The “Ratio Ad2.1/2.2” value in series [4] was found to be 3.677.

Regarding `C/C(=C\c1cccc(N(C)C)c1)[C@H]1OC(=O)C[C@H](O)CC[C@H](C)[C@@H](OC(=O)N2CCN(C)CC2)/C=C/[C@@H]1C` [Compound 265], the figures for the IC50 in series [1], in series [4] (setting [8]) and in series [4] (setting [9]) were 5.3 nM, more than 25000 nM and 71.6 nM, respectively. Moreover, the “CTGlo-ATS Mean MinResponse % 72 h PANC0504.1” value in series [2] (72 h) was found to be 25.1%. In addition, the GI50 in series [2] (setting [6]) was 36.7 nM; in series [3] (setting [7]), 47.5 nM. In addition, the “CTGlo-ATS Mean MinResponse % 72 h NCIH1568.1” value in series [3] (72 h) is −9.0%. For the same compound, the “Ratio Ad2.1/2.2” value in series [4] is given as 349.0.

Take tremelimumab: the plasma half-life entry in series [5] is recorded as “approximately 22 days”.
